Measurements published in ChEMBL document CHEMBL1201862, “PubChem BioAssay data set” (2004).
Calls of active or inactive are those of the source.

How the values were obtained:
[1] = NIH-3T3 fibroblast cytotoxicity, dose response, cytotoxicity control for antifungal single agent project, cell-based, Alamar Blue, dry powder (AID 602188); format: functional
[2] = target: ATP-dependent molecular chaperone HSP82 (Candida albicans (strain WO-1) (Yeast), UniProt C4YTQ8); assay: loss of DOC-induced GRE-beta-galactosidase reporter signal, dose response, Hsp90 inhibitor project, S. cerevisiae, luminescence (AID 2400); format: functional, cell-based;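 note: beta-galactosidase luminescence from glucocorticoid response element reporter as proxy for Hsp90 function; inhibitor potency where signal loss means Hsp90 inhibition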
Sequence of ATP-dependent molecular chaperone HSP82 (C4YTQ8 whole entry): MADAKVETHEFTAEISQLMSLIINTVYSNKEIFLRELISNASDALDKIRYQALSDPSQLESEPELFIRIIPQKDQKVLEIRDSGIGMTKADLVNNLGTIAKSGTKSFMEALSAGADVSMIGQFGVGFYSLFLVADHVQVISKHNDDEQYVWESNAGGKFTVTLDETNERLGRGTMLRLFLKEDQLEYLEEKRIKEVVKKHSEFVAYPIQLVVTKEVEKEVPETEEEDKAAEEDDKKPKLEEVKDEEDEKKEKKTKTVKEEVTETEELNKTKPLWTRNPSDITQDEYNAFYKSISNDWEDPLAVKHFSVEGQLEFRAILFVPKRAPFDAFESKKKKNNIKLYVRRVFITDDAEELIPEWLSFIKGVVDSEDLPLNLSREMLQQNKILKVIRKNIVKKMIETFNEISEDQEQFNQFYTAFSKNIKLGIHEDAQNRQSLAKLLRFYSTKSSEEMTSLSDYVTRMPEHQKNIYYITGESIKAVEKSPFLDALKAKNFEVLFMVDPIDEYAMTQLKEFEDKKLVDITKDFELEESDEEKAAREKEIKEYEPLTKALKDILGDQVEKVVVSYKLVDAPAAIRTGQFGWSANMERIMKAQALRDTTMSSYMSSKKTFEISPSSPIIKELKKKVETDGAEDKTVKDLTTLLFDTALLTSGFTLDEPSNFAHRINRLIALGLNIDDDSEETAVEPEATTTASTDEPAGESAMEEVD

[3] = cytotoxicity toward NIH3T3 fibroblasts, dose response, counter-screen, cell-based, ATP luminescence, mouse fibroblasts (AID 2010); format: functional;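 note: cells exposed to compound for about 90 hours before reading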
[4] = C. albicans growth with fluconazole, confirmation, fluorescence, retest (AID 2467); format: functional, cell-based
cells [5] = format: functional, cell-based
cells [6] = format: functional, cell-based; remark: listed apart in the source
[7] = NIH-3T3 fibroblast cytotoxicity, dose response, cytotoxicity control, cell-based, fluorescence, Alamar Blue, secondary assay (AID 2327); format: functional;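 note: NIH-3T3 mouse fibroblasts cultured with fluconazole at 8 µg/mL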
[8] = target: T1, Serine/threonine-protein phosphatase (Candida dubliniensis (strain CD36 / CBS 7987 / NCPF 3949 / NRRLY-17841) (Yeast), UniProt B9W6M3); assay: calcineurin pathway inhibitors in yeast reporter, dose response, S. cerevisiae, CDRE-lacZ, luminescence, secondary (AID 2388); format: functional, cell-based;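 note: yeast reporter cells carrying a calcineurin-responsive lacZ construct stimulated with calcium chloride; luminescent beta-galactosidase reporter signal in whole cells rather than isolated phosphatase activity; potency for inhibition where a drop in reporter signal means calcineurin blockade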
T1 sequence (B9W6M3 whole entry): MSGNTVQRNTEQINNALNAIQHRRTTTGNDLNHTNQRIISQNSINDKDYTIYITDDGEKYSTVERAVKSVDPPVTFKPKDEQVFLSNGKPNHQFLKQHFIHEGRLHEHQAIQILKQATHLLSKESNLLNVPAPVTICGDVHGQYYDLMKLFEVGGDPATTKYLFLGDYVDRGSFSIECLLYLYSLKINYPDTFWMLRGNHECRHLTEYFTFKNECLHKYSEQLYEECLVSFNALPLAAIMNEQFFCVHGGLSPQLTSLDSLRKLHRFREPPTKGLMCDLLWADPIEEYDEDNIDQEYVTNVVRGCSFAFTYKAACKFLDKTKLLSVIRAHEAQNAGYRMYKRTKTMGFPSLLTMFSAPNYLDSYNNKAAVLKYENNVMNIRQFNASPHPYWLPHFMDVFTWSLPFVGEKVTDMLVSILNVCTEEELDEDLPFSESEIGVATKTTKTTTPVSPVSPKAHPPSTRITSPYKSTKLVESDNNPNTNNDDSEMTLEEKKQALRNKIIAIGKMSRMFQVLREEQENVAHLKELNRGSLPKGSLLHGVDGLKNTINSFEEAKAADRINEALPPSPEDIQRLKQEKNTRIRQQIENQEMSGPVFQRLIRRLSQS

INS1 = assay: beta cell apoptosis inhibitors, cytokine rescue, dose response, luminescence, retest (AID 449756); format: functional, cell-based; settings: Rattus norvegicus;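 note: cell death triggered by IL-1 beta plus TNF-alpha plus IFN-gamma mixture; protective hits raise ATP signal compared with cytokine alone wells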
[9] = inhibitors of intracellular T. cruzi replication, confirmation, NIH3T3 host cells, beta-gal luminescence (AID 2044); format: functional, cell-based;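 note: intracellular parasites grown in NIH/3T3 mouse fibroblasts as host cells; luminescent beta-galactosidase reporter signal from transgenic T. cruzi replicating inside host cells; inhibitors lower the luminescence signal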
Vero = assay: cells; format: functional; settings: Chlorocebus sabaeus
[10] = target: Heat shock protein HSP 90-alpha (Homo sapiens, UniProt P07900); format: functional, organism-based
Streptococcus = assay: Group A Streptococcus viability loss, dose response, counter-screen for streptokinase expression inhibitor project, luminescence, BacTiterGlo (AID 1915); format: functional, organism-based;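 note: potency for reduction of bacterial viability or growth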
[11] = system: Streptococcus sp. 'group A'; assay: growth inhibition of control SK(-) GAS strain, dose response, counter-screen for streptokinase expression inhibitor project, luminescence, kanamycin, BacTiterGlo, confirmation (AID 1900); format: functional, organism-based
Streptokinase A = target: T2, Streptokinase A (Streptococcus pyogenes serotype M1, UniProt P10520); assay: S. pyogenes streptokinase expression inhibitors, potency, dose response, plasminogen activation absorbance, OD405 (AID 1914); format: functional, Streptococcus pyogenes M1 GAS;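 note: secreted streptokinase activity via plasminogen activation per viability signal from cell pellet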
T2 sequence (P10520 whole entry): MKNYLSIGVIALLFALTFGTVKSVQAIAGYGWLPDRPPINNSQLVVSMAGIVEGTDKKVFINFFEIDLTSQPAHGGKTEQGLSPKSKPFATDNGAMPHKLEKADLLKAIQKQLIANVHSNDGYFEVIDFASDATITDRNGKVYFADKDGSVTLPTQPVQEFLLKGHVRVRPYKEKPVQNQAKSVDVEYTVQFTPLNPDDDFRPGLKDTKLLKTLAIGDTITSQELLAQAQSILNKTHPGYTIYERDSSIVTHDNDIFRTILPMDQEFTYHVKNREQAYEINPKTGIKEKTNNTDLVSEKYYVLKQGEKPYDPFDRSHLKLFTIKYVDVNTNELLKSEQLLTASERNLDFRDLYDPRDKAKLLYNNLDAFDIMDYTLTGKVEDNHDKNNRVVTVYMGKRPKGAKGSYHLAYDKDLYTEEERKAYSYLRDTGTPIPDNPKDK

Escherichia coli = assay: microbe, parasite or virus in culture
[12] = target: Voltage-gated inwardly rectifying potassium channel KCNH2 (Homo sapiens, UniProt Q12809); settings: Potency;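 note: confirmatory quantitative high-throughput screen measuring inhibition of hERG channel activity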
Sequence of Voltage-gated inwardly rectifying potassium channel KCNH2 (Q12809 whole entry): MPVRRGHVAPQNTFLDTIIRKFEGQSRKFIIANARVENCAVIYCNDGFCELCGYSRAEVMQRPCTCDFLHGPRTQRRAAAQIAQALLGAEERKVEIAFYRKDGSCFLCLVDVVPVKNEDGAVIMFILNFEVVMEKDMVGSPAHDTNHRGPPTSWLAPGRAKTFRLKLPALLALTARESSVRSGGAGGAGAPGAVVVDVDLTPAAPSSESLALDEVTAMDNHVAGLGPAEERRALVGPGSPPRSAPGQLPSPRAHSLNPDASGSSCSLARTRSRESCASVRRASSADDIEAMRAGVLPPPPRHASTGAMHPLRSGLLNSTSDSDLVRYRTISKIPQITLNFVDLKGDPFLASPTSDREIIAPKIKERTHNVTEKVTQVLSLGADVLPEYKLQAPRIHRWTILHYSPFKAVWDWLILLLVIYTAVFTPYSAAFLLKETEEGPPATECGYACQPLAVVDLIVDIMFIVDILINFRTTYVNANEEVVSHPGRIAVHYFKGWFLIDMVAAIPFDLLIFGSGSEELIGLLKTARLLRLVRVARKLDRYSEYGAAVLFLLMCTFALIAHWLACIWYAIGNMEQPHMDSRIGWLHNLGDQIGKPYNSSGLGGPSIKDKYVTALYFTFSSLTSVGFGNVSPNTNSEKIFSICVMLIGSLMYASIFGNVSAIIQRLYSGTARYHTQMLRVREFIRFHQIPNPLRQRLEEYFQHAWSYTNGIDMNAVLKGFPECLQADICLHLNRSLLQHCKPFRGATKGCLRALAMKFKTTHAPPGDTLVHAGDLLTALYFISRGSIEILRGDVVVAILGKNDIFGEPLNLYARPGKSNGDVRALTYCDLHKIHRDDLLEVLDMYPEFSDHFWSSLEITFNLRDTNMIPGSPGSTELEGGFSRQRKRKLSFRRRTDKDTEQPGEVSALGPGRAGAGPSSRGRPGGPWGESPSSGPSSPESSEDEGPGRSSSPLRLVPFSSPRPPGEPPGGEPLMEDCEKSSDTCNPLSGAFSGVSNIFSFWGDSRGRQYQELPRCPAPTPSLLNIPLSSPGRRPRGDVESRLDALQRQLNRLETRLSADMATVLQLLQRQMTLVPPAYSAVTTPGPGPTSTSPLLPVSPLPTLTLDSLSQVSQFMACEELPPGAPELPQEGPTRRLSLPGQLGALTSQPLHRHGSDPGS

H4 = assay: Luminescence Cell-Based Dose Response HTS to Identify Activators of 5'UTR Stem-Loop Driven Prion Protein mRNA Translation in H4 Neuroglioblastoma Cells. [Related pubchem assays: 1829 (Project Summary), 1814 (Primary HTS)]; format: functional; settings: Homo sapiens
Melanocortin receptor 4 = Melanocortin receptor 4 (Homo sapiens, UniProt P32245); format: functional, cell-based;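 note: Cell-based assay with luminescence read-out, confirmatory dose-response testing for agonist activity of biased ligands at MC4R; human U2OS cells with tagged receptor and beta-arrestin; potency of agonists that increase receptor coupling to beta-arrestin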
Sequence of Melanocortin receptor 4 (P32245 whole entry): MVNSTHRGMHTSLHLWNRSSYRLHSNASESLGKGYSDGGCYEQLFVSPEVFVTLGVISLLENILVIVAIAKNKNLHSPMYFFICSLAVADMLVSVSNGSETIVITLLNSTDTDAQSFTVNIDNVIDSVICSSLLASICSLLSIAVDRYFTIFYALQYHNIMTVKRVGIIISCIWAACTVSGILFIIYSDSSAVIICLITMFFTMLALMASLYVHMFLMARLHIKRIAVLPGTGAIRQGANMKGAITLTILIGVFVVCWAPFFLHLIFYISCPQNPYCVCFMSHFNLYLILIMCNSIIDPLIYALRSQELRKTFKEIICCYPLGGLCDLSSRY

[13] = Luminescence Cell-Based Dose Confirmation HTS to Identify Activators of 5'UTR Stem-Loop Driven Alpha-Synuclein mRNA Translation in H4 Neuroglioblastoma Cells. [Related pubchem assays: 1829 (Project Summary), 1814 (Primary HTS)]; format: functional
[14] = Luminescence Cell-Based Dose Response HTS to Identify Activators of Luciferase Translation or Activity in H4 […] Cells. [Related pubchem assays: 1829 (Project Summary), 1814 (Primary HTS)]; format: functional
[15] = control 3'UTR Renilla luciferase suppression, dose response, counter-screen for Shn3 inhibitor project, cell-based, Clone20-Shn3RL, cherry-picked (AID 624133); format: functional
[16] = insulin promoter down-regulators in MIN6 cells, imaging, high-content screening, mouse beta cells (AID 1628); format: functional
[17] = Shn3 3'UTR reporter inhibitors, dose response, cell-based, Clone20 osteoblasts, firefly luciferase, cherry-picked (AID 624132); format: functional;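 note: firefly luciferase luminescence from reporter carrying the Shn3 3'UTR in osteoblasts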
[18] = cytotoxicity in MIN6 insulinoma cells, dose response, cytotoxicity control, cell-based, mouse insulinoma (AID 2122); format: functional;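 note: confirmatory high-throughput counterscreen run to flag cytotoxic compounds; mouse MIN-6 beta cells carrying an insulin promoter eGFP reporter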
[19] = HepG2 cell cytotoxicity, dose response, cytotoxicity control for Shn3 inhibitor project, CellTiter-Glo, cherry-picked (AID 624134); format: functional, cell-based
[20] = target: T3, Microphthalmia-associated transcription factor (Homo sapiens, UniProt O75030); assay: TRPM1 promoter luciferase signal decrease, dose response, MITF inhibitor project, cell-based, SK-MEL-5, cherry-picked, set 3 (AID 493073); format: functional
T3 sequence (O75030 whole entry): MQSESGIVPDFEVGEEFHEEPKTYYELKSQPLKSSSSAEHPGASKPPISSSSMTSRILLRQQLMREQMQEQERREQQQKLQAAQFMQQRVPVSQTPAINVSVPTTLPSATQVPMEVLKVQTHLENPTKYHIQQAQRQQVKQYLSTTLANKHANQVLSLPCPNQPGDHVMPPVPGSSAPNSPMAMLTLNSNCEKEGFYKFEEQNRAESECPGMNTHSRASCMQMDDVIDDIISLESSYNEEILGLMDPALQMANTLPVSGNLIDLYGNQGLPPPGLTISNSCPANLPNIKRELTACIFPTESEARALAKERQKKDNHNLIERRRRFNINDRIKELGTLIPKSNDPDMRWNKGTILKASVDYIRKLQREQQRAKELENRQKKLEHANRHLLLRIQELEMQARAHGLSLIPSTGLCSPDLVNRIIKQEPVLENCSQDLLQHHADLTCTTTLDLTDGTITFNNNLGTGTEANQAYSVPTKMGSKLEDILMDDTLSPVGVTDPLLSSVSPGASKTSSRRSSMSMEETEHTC

Cysteine protease ATG4B = target: T4, Cysteine protease ATG4B (Homo sapiens, UniProt Q9Y4P1); format: functional;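 note: Fluorescence-based dose-response confirmation assay measuring inhibition of ATG4B activity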
T4 sequence (Q9Y4P1 whole entry): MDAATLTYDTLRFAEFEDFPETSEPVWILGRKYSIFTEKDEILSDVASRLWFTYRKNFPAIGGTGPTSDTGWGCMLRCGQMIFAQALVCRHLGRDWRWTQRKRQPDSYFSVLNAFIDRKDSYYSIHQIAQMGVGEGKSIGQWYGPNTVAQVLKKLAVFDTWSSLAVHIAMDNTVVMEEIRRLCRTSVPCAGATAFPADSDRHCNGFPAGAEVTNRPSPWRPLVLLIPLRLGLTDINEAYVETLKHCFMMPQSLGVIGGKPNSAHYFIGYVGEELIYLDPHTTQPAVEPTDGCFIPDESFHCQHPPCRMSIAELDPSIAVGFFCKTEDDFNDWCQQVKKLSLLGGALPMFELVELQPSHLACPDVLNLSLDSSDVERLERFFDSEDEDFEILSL

Phospholipase A2 = Phospholipase A2 (Homo sapiens, UniProt P04054); format: functional;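 note: confirmatory dose-response counterscreen on phospholipase A2, testing hits that came from an ultra-high-throughput screen for ATG4B inhibitors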
Sequence of Phospholipase A2 (P04054 whole entry): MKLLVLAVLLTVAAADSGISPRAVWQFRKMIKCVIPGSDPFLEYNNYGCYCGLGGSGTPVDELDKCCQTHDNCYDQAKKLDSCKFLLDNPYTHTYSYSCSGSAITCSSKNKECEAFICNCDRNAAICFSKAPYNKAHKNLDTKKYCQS

Cc1cc(C)n(-c2nc3ccccc3c(=O)n2OCC#N)n1
AC50 [1]: 0.881 µM (active) | EC50 [2]: > 150 µM (inactive) | EC50 [3]: 4.32 µM (active) | EC50 [4]: 0.727 µM (active) | EC50 (cells [5]): 137 µM (active) | EC50 (cells [6]): 28.9 µM (active) | EC50 [7]: 150 µM (active) | EC50 [8]: > 180 µM (inactive) | AC50 (INS1): 4.13 µM (active) | EC50 [9]: 1.14 µM (active) | CC50 (Vero): 8.68 µM (active)

O=C(NNc1nc2ccc(Cl)cc2s1)c1cc(-c2cccs2)nc2ccccc12
EC50 [2]: 12.8 µM (active) | AC50 [10]: 2.18 µM (active) | EC50 (Streptococcus): 5.79 µM (active) | EC50 [4]: 0.433 µM (active) | EC50 [11]: 0.472 µM (active) | EC50 [7]: 19.7 µM (active) | EC50 [8]: > 180 µM (inactive) | EC50 (Streptokinase A): > 150 µM (not active)

CS(=O)(=O)N1CCN(C(=O)c2cccnc2)CC1
AC50 (Escherichia coli): > 150 µM (inactive)

CC(O)[C@@H](O)[C@H]1CNc2nc(N)[nH]c(=O)c2N1 (some centres undefined)
AC50 [12]: 3.55 µM (inconclusive)

Cc1nnnn1/C(=C\c1ccccc1)C(=O)OCC(=O)Nc1ccc(Cl)cc1F
EC50 (H4): 5.56 µM (active) | EC50 (Melanocortin receptor 4): > 89.2 µM (inactive) | EC50 [13]: > 120 µM (not active) | EC50 [14]: > 60 µM (not active)

Cc1ccc(NC(=O)CN(C)CC(=O)Nc2cccc(F)c2)cc1[N+](=O)[O-]
AC50 [15]: 10.1 µM (active) | IC50 [16]: 0.765 µM (active) | AC50 [17]: 0.57 µM (active) | IC50 [18]: 0.487 µM (active) | AC50 [19]: > 70 µM (inactive)

COc1ccc(C(=O)C(CN2CCOCC2)c2ccccc2)cc1 (centres undefined)
AC50 [15]: 11.2 µM (active) | IC50 [16]: 4.99 µM (active) | AC50 [17]: 5.59 µM (active) | IC50 [18]: 4.42 µM (active) | AC50 [20]: 7.29 µM (active) | AC50 [19]: > 70 µM (inactive)

CC1CC(C)CN(C(=O)c2ccc(C(=O)c3ccccc3)cc2)C1 (centres undefined)
IC50 (Cysteine protease ATG4B): 10.8 µM (active) | IC50 (Phospholipase A2): 8.32 µM (active)

Cc1sc2nc(C3CCCCC3)nc(SCC(=O)N3CC(=O)Nc4ccccc43)c2c1C
IC50 (Cysteine protease ATG4B): 0.316 µM (active) | IC50 (Phospholipase A2): 0.182 µM (active)

CC(C)Cn1cnc2c(c(-c3ccccc3)c(-c3ccccc3)n2Cc2ccco2)c1=N
EC50 [3]: 8.39 µM (active) | IC50 [16]: 1.69 µM (active) | EC50 [9]: 0.879 µM (active) | IC50 [18]: 2.88 µM (active)
